In US9434725B2, “5-azaindazole compounds and methods of use” (priority 2012, dated 2016):
Like-named read-outs stand apart in the source and are kept apart here.

Tests used:
[1] = biological target: PIM2 (Homo sapiens (Human), UniProt Q9P1W9); assay: Pim kinase binding activity, Caliper LC3000 microfluidic peptide phosphorylation assay, PIM2; assay type: biochemical; conditions: 10 μM ATP, 90 min, room temperature; read-out: PIM2 LC3K (KI)
Outline: (§1)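 Pim-specific fluorescent peptide phosphorylated in 10 mM HEPES pH 7.2, 10 mM MgCl2, 0.01% Tween 20, 2 mM DTT for 90 min at room temperature, then stopped with EDTA. Product and substrate separated by microfluidic mobility shift; Ki derived from substrate conversion.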

[2] = biological target: PIM3 (Homo sapiens (Human), UniProt Q86V86); assay: Pim kinase binding activity, Caliper LC3000 microfluidic peptide phosphorylation assay, PIM3; assay type: biochemical; conditions: 10 μM ATP, 90 min, room temperature; read-out: PIM3 LC3K (KI)
Outline: as §1

[3] = system: MM1.S (multiple myeloma) cells; assay: In vitro cell proliferation potency assay (Cell Titer Glo), MM1.S cells; assay type: cell-based; conditions: Homo sapiens, MM1.S cells, 72 hours, read-out: Prolif MM1S ATP (EC50)
Method: (§2) BaF3 parental line was obtained from the DSMZ repository. BaF3 lines transfected with PIM1 or PIM2 were generated. Mouse IL-3 was purchased from R&D Systems. G418 was purchased from Clontech. Media for BaF3 parental line contained RPMI, 10% FBS, 2 mM L-Glutamine, 2 ng/mL mIL-3. Media for BaF3 PIM1 & 2 lines contained RPMI, 10% FBS, 2 mM L-Glutamine, […]. Media for MM1.S (multiple myeloma cells) line contained RPMI, 10% FBS, 2 mM L-Glutamine.
(§3) BaF3, a murine interleukin-3 dependent pro-B cell line, parental cells, BaF3 PIM1 cells, BaF3 PIM2 cells, and MM1.S (multiple myeloma) cells were seeded at 2 k/well, 5 k/well, 5 k/well, and 10 k/well respectively, in a 384-well plate, at 45 μL/well. Test compound was added at 5 μL/well. BaF3 cells (parental and transfected) were incubated overnight, while MM1.S cells were incubated for 72 hours at 37° C., 5% CO2. CELL TITER GLO® Reagent (Promega) was added at 50 μL/well, the plates were incubated for 30 minutes, and their luminescence read on an HT Analyst. IC50/EC50 values for the test compound were calculated.

[4] = biological target: PIM1 (Homo sapiens (Human), UniProt P11309); assay: biochemical; assay type: biochemical; conditions: 10 μM ATP, 90 min, room temperature; read-out: PIM1 LC3K (KI)
Chain of PIM1 (P11309 whole entry): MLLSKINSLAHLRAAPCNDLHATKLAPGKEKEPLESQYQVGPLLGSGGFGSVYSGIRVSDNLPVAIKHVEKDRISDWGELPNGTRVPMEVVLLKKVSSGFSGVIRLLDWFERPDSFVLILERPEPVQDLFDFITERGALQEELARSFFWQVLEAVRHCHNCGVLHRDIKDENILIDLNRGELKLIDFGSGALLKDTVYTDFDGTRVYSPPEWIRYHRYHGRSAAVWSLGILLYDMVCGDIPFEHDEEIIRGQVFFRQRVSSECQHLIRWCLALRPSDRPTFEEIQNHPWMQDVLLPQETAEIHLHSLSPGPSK
Outline: as §1

[5] = system: BaF3 PIM1 cells; assay: In vitro cell proliferation potency assay (Cell Titer Glo), BaF3 PIM1 cells; assay type: cell-based, murine; conditions: Mus musculus, BaF3, BaF3 cells transfected with PIM1, incubated overnight; read-out: Prolif BaF3_PIM 1 (IC50)
Method: as §2, §3

Chain of PIM2 (Q9P1W9 whole entry): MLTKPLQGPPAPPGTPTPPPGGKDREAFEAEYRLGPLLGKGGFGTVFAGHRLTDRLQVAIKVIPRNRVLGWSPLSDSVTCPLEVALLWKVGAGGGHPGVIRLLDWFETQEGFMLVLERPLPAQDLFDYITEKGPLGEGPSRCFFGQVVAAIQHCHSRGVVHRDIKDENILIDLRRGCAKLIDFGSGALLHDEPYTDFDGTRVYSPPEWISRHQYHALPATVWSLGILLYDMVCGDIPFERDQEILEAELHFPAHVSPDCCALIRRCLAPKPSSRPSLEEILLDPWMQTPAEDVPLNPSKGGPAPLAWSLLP

Row | Compound | Ki [1] [nM] | Ki [2] [nM] | EC50 ([3]; MM1.S, 72 h) [nM] | EC50 [3] [nM] | Ki [4] [nM] | IC50 [5] [nM]
1 | CCc1cncc(-c2cc3c(cn2)cnn3-c2cccc(N3CCNC[C@@H](O)C3)n2)c1 (single isomer, unassigned) [Compound 122] | 4.59 | 0.083 | 2700 | – | – | –
2 | Cc1cncc(-c2cc3c(cn2)cnn3-c2cccc(N3CC(N)CCC3C)n2)n1 (single isomer, unassigned) [Compound 182, 6-methyl-1-[6-[6-(6-methylpyrazin-2-yl)pyrazolo[4,3-c]pyridin-1-yl]-2-pyridyl]piperidin-3-amine] | – | – | 1900 | – | – | –
3 | CCn1cncc(-c2cc3c(cn2)cnn3-c2cccc(N3CCNCC3)n2)c1=O [Compound 151, 3-ethyl-5-[1-(6-piperazin-1-yl-2-pyridyl)pyrazolo[4,3-c]pyridin-6-yl]pyrimidin-4-one] | 3.32 | 0.081 | 8600 | – | – | –
4 | FCCn1cc(-c2cc3c(cn2)cnn3-c2cccc(N3CCCNCC3)n2)cn1 [Compound 153, 1-(6-(1,4-Diazepan-1-yl)pyridin-2-yl)-6-(1-(2-fluoroethyl)-1H-pyrazol-4-yl)-1H-pyrazolo[4,3-c]pyridine] | 1.37 | 0.085 | 2500 | – | – | –
5 | FC(F)(F)Cn1cc(-c2cc3c(cn2)cnn3-c2cccc(N3CCCNCC3)n2)cn1 [Compound 154, 1-(6-(1,4-Diazepan-1-yl)pyridin-2-yl)-6-(1-(2,2,2-trifluoroethyl)-1H-pyrazol-4-yl)-1H-pyrazolo[4,3-c]pyridine] | 1.01 | 0.175 | 2300 | – | – | –
6 | N#CCn1cc(-c2cc3c(cn2)cnn3-c2cccc(N3CCCNCC3)n2)cn1 [Compound 155, 2-(4-(1-(6-(1,4-Diazepan-1-yl)pyridin-2-yl)-1H-pyrazolo[4,3-c]pyridin-6-yl)-1H-pyrazol-1-yl)acetonitrile] | 1.49 | 0.109 | 3500 | – | – | –
7 | Cc1cncc(-c2cc3c(cn2)cnn3-c2cccc(N3CC[C@@H](N)C3)n2)n1 [Compound 168, (3R)-1-[6-[6-(6-methylpyrazin-2-yl)pyrazolo[4,3-c]pyridin-1-yl]-2-pyridyl]pyrrolidin-3-amine] | 4.74 | 0.806 | 5000 | – | – | –
8 | Cc1nc(-c2cc3c(cn2)cnn3-c2cccc(N3CCC[C@H](N)C3)n2)cnc1N [Compound 209, (S)-5-(1-(6-(3-aminopiperidin-1-yl)pyridin-2-yl)-1H-pyrazolo[4,3-c]pyridin-6-yl)-3-methylpyrazin-2-amine] | 0.575 | 0.011 | – | – | 0.045 | 682
9 | Cc1cncc(-c2cc3c(cn2)cnn3-c2cccc(N3CCC4(CNC4)C3)n2)n1 [Compound 214, 1-[6-(2 6-diazaspiro[3.4]octan-6-yl)-2-pyridyl]-6-(6-methylpyrazin-2-yl)pyrazolo[4,3-c]pyridine] | 2.65 | 0.199 | – | – | 0.385 | 1000
10 | Cc1cncc(-c2cc3c(cn2)cnn3-c2cnc(C)c(N3CCC[C@H](N)C3)n2)n1 [Compound 228, (3S)-1-[3-methyl-6-[6-(6-methylpyrazin-2-yl)pyrazolo[4,3-c]pyridin-1-yl]pyrazin-2-yl]piperidin-3-amine] | 0.724 | 0.047 | – | – | 0.074 | 778
11 | Cn1cc(-c2cc3c(cn2)cnn3-c2cccc(N3CCNC[C@H](O)C3)n2)cn1 [Compound 231, (S)-1-(6-(6-(1-Methyl-1H-pyrazol-4-yl)-1H-pyrazolo[4,3-c]pyridin-1-yl)pyridin-2-yl)-1,4-diazepan-6-ol] | 1.39 | 0.032 | 2200 | – | 0.078 | –
12 | FC1CCNCC1c1cccc(-n2ncc3cnc(-c4cnn(CC(F)(F)F)c4)cc32)n1 (centres unmarked) [Compound 306, 1-(6-(4-fluoropiperidin-3-yl)pyridin-2-yl)-6-(1-(2,2,2-trifluoroethyl)-1H-pyrazol-4-yl)-1H-pyrazolo[4,3-c]pyridine] | – | 0.125 | 1700 | – | – | –
13 | Cc1cncc(-c2cc3c(cnn3-c3cccc(N4CCNCC4)n3)nn2)n1 [Compound 313, 6-(6-methylpyrazin-2-yl)-1-(6-(piperazin-1-yl)pyridin-2-yl)-1H-pyrazolo[4,3-c]pyridazine] | 0.71 | 0.05 | 7100 | – | – | –

The remaining lines, values ahead:

Row | Ki [1] [nM] | Ki [2] [nM] | EC50 ([3]; MM1.S, 72 h) [nM] | EC50 [3] [nM] | Ki [4] [nM] | IC50 [5] [nM] | Compound
14 | 0.44 | – | 4600 | – | – | – | Cc1cncc(-c2cc3c(cn2)cnn3-c2cccc(N3CCCNCC3)n2)n1 [Compound 138, 1-[6-(1 4-diazepan-1-yl)-2-pyridyl]-6-(6-methylpyrazin-2-yl)pyrazolo[4,3-c]pyridine]
15 | 3.37 | 0.078 | 5000 | – | – | – | Cc1cncc(-c2cc3c(cn2)cnn3-c2cccc(N3CCCNCC3)n2)c1 [Compound 141, 1-(6-(1,4-diazepan-1-yl)pyridin-2-yl)-6-(5-methylpyridin-3-yl)-1H-pyrazolo[4,3-c]pyridine]
16 | 1.16 | 0.05 | 2600 | – | – | – | c1cc(N2CCNCC2)nc(-n2ncc3cnc(-c4cnccn4)cc32)c1 [Compound 144, 1-(6-piperazin-1-yl-2-pyridyl)-6-pyrazin-2-yl-pyrazolo[4,3-c]pyridine]
17 | 0.333 | 0.019 | – | 1900 | – | – | CCc1cncc(-c2cc3c(cn2)cnn3-c2cccc(N3CCCNCC3)n2)n1 [Compound 150, 1-[6-(1 4-diazepan-1-yl)-2-pyridyl]-6-(6-ethylpyrazin-2-yl)pyrazolo[4 3-c]pyridine]
18 | 2.95 | 0.094 | – | – | 0.223 | 715 | Cc1cncc(-c2cc3c(cn2)cnn3-c2cccc(N3CCC4(CCCN4)CC3)n2)n1 [Compound 216, 8-[6-[6-(6-methylpyrazin-2-yl)pyrazolo[4,3-c]pyridin-1-yl]-2-pyridyl]-1 8-diazaspiro[4.5]decane]
19 | 0.664 | 0.026 | – | 2500 | 0.023 | – | Nc1cncc(-c2cc3c(cn2)cnn3-c2cccc(N3CCCNCC3)n2)n1 [Compound 247, 6-(1-(6-(1,4-diazepan-1-yl)pyridin-2-yl)-1H-pyrazolo[4,3-c]pyridin-6-yl)pyrazin-2-amine]
20 | 4.67 | – | 4200 | – | – | – | OCC(O)c1cncc(-c2cc3c(cn2)cnn3-c2cccc(N3CCNCC3)n2)n1 (centres unmarked) [Compound 277, 1-(6-(1-(6-(piperazin-1-yl)pyridin-2-yl)-1H-pyrazolo[4,3-c]pyridin-6-yl)pyrazin-2-yl)ethane-1,2-diol]
21 | 0.357 | 0.021 | 9700 | – | – | – | OCCNc1cncc(-c2cc3c(cn2)cnn3-c2cccc(N3CCNCC3)n2)n1 [Compound 282, 2-[[6-[1-(6-piperazin-1-yl-2-pyridyl)pyrazolo[4,3-c]pyridin-6-yl]pyrazin-2-yl]amino]ethanol]
22 | 8.05 | 0.182 | 8900 | – | – | – | O[C@H]1CCC[C@@H]1Nc1cncc(-c2cc3c(cn2)cnn3-c2cccc(N3CCNCC3)n2)n1 [Compound 283]
23 | – | 0.092 | 8200 | – | – | – | NCCOc1cncc(-c2cc3c(cn2)cnn3-c2cccc(N3CCNCC3)n2)n1 [Compound 286, 2-((6-(1-(6-(piperazin-1-yl)pyridin-2-yl)-1H-pyrazolo[4,3-c]pyridin-6-yl)pyrazin-2-yl)oxy)ethanamine]
24 | 2.68 | 0.396 | – | – | 0.854 | 1600 | Cc1cncc(-c2cc3c(cn2)cnn3-c2cccc(N3CCC[C@@H](O)C3)n2)n1 [Compound 298, (R)-1-(6-(6-(6-methylpyrazin-2-yl)-1H-pyrazolo[4,3-c]pyridin-1-yl)pyridin-2-yl)piperidin-3-ol]
25 | 4.17 | 0.248 | – | – | 0.419 | 1600 | Cc1cncc(-c2cc3c(cn2)cnn3-c2cccc(N3CCC[C@H](O)C3)n2)n1 [Compound 299, (S)-1-(6-(6-(6-methylpyrazin-2-yl)-1H-pyrazolo[4,3-c]pyridin-1-yl)pyridin-2-yl)piperidin-3-ol]
26 | 0.228 | 0.032 | 2400 | – | – | – | OCC#Cc1cncc(-c2cc3c(cn2)cnn3-c2cccc(N3CCNCC3)n2)n1 [Compound 300, 3-(6-(1-(6-(piperazin-1-yl)pyridin-2-yl)-1H-pyrazolo[4,3-c]pyridin-6-yl)pyrazin-2-yl)prop-2-yn-1-ol]
27 | 1.71 | 0.026 | 2700 | – | – | – | CC#Cc1cncc(-c2cc3c(cn2)cnn3-c2cccc(N3CCNCC3)n2)n1 [Compound 317, 1-(6-(piperazin-1-yl)pyridin-2-yl)-6-(6-(prop-1-ynyl)pyrazin-2-yl)-1H-pyrazolo[4,3-c]pyridine]
